Reference: patent US7005124B2, “Dendritic-antineoplastic drug delivery system” (priority 1997, dated 2006)
Like-named read-outs stand apart in the source and are kept apart here.

What was measured:
B16F10 [1] = assay: Cell cytotoxicity of dendrimer-platinate, MTT; format: cell-based, murine; details: Pt-equiv.
Protocol: (§1) All cellular growth and cytotoxic incubations were carried out in a cell incubator at 37° C. and 5% CO2 atmosphere.
(§2) Cell density was assessed using an improved neurenbrow hemocytometer (Sigma). The cells were washed with PBS twice and fresh RPMI media (supplemented with FCS) added, the cells were then seeded in a microtitre plate. The cells were left for 24 hours to recover and re-adhere. If cells were in a suspension they were spun at 1000×g and resuspended in fresh media.
(§3) Some cells were left in media only to act as cellular controls. The cells were left in the incubator for 72 hours, and checked occasionally for yeast or bacterial contamination. Five hours prior to the incubation time end point, at 67 hours, 20 μl of MTT was added and the cells left for the final 5 hours. Then cellular media was removed and 100 μl of optical grade DMSO (Sigma) was added and the MTT crystals dissolved.

CCRF-CEM = assay: Cell cytotoxicity of dendrimer-platinate, MTT; format: cell-based, human; details: Pt-equiv.
Protocol: as §1, §2, §3

Cor L23 = assay: Cell cytotoxicity of dendrimer-platinate, MTT; format: cell-based, human; details: Pt-equiv.
Protocol: as §1, §2, §3

B16F10 [2] = assay: Activity against B16F10 I.P., I.P. injection; format: in vivo, C57 mice; details: dose 5 Pt-equiv mg/Kg, day 1
Protocol: (§4) Alternatively drug was administered I.V. to mice bearing S.C. implanted B16F10 when the tumor reached palpable size (50–100 mm^2). Animal weight, tumor size and animal survival were monitored (UK guidelines for animal experiments involving neoplasia were followed.)
(§5) Li 210 or B16F10 cells were injected at a cell density into a mouse (DBA2 or C57 respectively, 25 g) at a cell density of 1×10^5 (0.9% saline solution) into the intraperitoneal (I.P. 100 μl) cavity. […] The mouse body weight and general toxicity was also monitored according to UK guidelines in the use of animals used in neoplasia studies. At the end point the gross morphology of the organs was noted.

L1210 = L1210 ip
Protocol: as §4, §5

SMILES: N.N.[Cl][Pt][Cl] [Cisplatin, cis-diamminedichloroplatinum]
- IC50 Values (B16F10 [1]): 9 µg/mL
- IC50 Values (CCRF-CEM): 5 µg/mL
- IC50 Values (Cor L23): 1 µg/mL
- T/C (B16F10 [2]): 89
- T/C (L1210; dose 2 Pt-equiv mg/Kg I.P. days 1, 2, 3): 171
- T/C (L1210; dose 3 Pt-equiv mg/Kg I.P. days 1, 2, 3): 64
